# Tests used:
# [1] = Plasma pharmacokinetics after single PO or IV administration (Example 5), LC-MS/MS; conditions: for Tmax / AUC(0-t) / Cmax: female, rat, plasma, free base; for Tmax: Tmax (hr) Mean ± StdDev; for AUC(0-t): AUC0-last (hr*ng/mL) Mean ± StdDev; for Cmax: Cmax (ng/mL) Mean ± StdDev
# Protocol: The animals used in this study were female Sprague Dawley Rats physiologically normal. At the time of receipt, mice were 200-225 g in weight. […] Ninety-four total animals were observed thereafter. The parenteral administration is performed by tail vein injection.
# Compound 2 was provided in free base form and stored at −20° C., protected from light. Compound 2 was formulated in dosage form immediately prior to use. For oral administration of Compound 2 in ORA-Plus® drinking solution, Compound 2 was suspended in drinking solution ORA-Plus® (Perrigo; Minneapolis, Minn.). First, a mortar and pestle were used to smooth out the Compound 2 powder, then a small amount of ORA-Plus® was added, and next, the mixture was triturated to a thick, smooth paste. The remainder of the ORA-Plus® was added by geometric dilution. The Compound 2 free base and ORA-Plus® mixture was dispensed in a tight, light resistant amber bottle with appropriate labeling. This mixture was shaken well before using, protected from light and kept refrigerated if dosing was delayed. For oral administration of Compound 2 in citric acid buffer with Captisol®, Compound 2 free base powder was dissolved or suspended into 30% Captisol® (Cydex Pharmaceuticals; Lawrence, Kans.) in 60 mM citrate buffer (pH˜4.2) (citric acid and sodium citrate dehydrate (Sigma-Aldrich; St. Louis Mo.)) in sterile water) to each group's working concentration. […] A magnetic stir-bar was used to mix dosing solution, followed by sonication. For intravenous administration, Compound 2 free base powder was dissolved into 15% Captisol® in 5 mM citrate buffer (pH˜4.2) to each group's working concentration. A magnetic stirbar was used to mix dosing solution, followed by sonication. IV dosing solution of Compound 2 free base was filtered with a 0.2 m PVDF filter (Pall Life Sciences; Port Washington, N.Y.) prior to administration.
# Dose levels of Compound 1 were based on the free base, not the salt.
# Animals were randomized using random equilibration of body weights on Day 1 into one of 19 study groups, as shown in Table 23 (Groups 1-19), with 5 animals in each group, except for the 4 animals in Group 19. Body weights were collected Days 1, 2, 3, and/or 4 to accommodate data collection of staggered groups. Gross observations of body weight were noted during the course of the study.
# [2] = Plasma pharmacokinetics after single oral dose in ORA-Plus or SyrSpend SF (Example 6), LC-MS/MS; type: in vivo, Sprague Dawley rats; conditions: for AUC % Extrap / Cl_F / Vz_F / AUC(0-inf) / AUC(0-t) / Cmax / Tmax / half-life: rat plasma; for % AUC0-last test vs reference: rats, ratio of group averages; for AUC(0-inf) / AUC(0-t) / Cmax / Tmax / half-life: female, rat, plasma, po
# [3] = Tolerability (body weight, toxicity, maximum tolerated dose) in the Example 5 rat study; type: in vivo; conditions: free base
# Protocol: Ninety-four total animals were observed thereafter. The parenteral administration is performed by tail vein injection.
# [4] = 24 mg/kg PO, Group 1 (ORA-plus) relative to Group 5 (citrate buffer-Captisol)
# [5] = 36 mg/kg PO, Group 2 (ORA-plus) relative to Group 6 (citrate buffer-Captisol)
# [6] = 48 mg/kg PO, Group 3 (ORA-plus) relative to Group 7 (citrate buffer-Captisol)
# [7] = 60 mg/kg PO, Group 4 (ORA-plus) relative to Group 8 (citrate buffer-Captisol)
# [8] = Sprague Dawley, po, 24 mg/kg, Group 5: 24 mg/kg PO, 60 mM Citric acid buffer + 30% Captisol
# [9] = Sprague Dawley, po, 36 mg/kg, Group 2: 36 mg/kg PO, ORA-Plus
# [10] = Sprague Dawley, po, 36 mg/kg, Group 6: 36 mg/kg PO, 60 mM Citric acid buffer + 30% Captisol
# [11] = Sprague Dawley, po, 48 mg/kg, Group 3: 48 mg/kg PO, ORA-Plus
# [12] = Sprague Dawley, po, 48 mg/kg, Group 7: 48 mg/kg PO, 60 mM Citric acid buffer + 30% Captisol
# [13] = Sprague Dawley, po, 60 mg/kg, Group 4: 60 mg/kg PO, ORA-Plus
# [14] = Sprague Dawley, po, 60 mg/kg, Group 8: 60 mg/kg PO, 60 mM Citric acid buffer + 30% Captisol
# [15] = Sprague-Dawley, iv, 12 mg/kg, Group 9: 12 mg/kg IV, 5 mM Citric acid buffer + 15% Captisol
# [16] = Sprague-Dawley, iv, 24 mg/kg, Group 10: 24 mg/kg IV, 5 mM Citric acid buffer + 15% Captisol
# [17] = Sprague-Dawley, po, 24 mg/kg, Group 1: 24 mg/kg PO, ORA-Plus, single dose
# [18] = G1: free base, 24 mg/kg single oral dose, ORA-plus
# [19] = G2: free base, 48 mg/kg single oral dose, ORA-plus, n = 4
# [20] = G7: free base, 24 mg/kg single oral dose, SyrSpend, n = 4
# [21] = G8: free base, 48 mg/kg single oral dose, SyrSpend
# [22] = Sprague Dawley, 24 mg/kg, G1: free base, 24 mg/kg single oral dose, ORA-plus
# [23] = Sprague Dawley, 48 mg/kg, G2: free base, 48 mg/kg single oral dose, ORA-plus
# [24] = Sprague Dawley, 48 mg/kg, G2: free base, 48 mg/kg single oral dose, ORA-plus, n = 4
# [25] = Sprague-Dawley, 24 mg/kg, G7: free base, 24 mg/kg single oral dose, SyrSpend
# [26] = Sprague-Dawley, 24 mg/kg, G7: free base, 24 mg/kg single oral dose, SyrSpend, n = 4
# [27] = Sprague-Dawley, 48 mg/kg, G8: free base, 48 mg/kg single oral dose, SyrSpend
smiles,measurement,setting,value
CC(C)(C)CNCCn1c(Sc2cc3c(cc2I)OCO3)nc2c(N)ncnc21 [Compound 2],% AUC0-last (hr*ng/mL) ORA vs Citrate Mean ± StdDev,[1]; [4],48.63 ± 15.03%
same,% Cmax (ng/mL) ORA vs Citrate Mean ± StdDev,[1]; [4],47.65 ± 16.52%
same,% AUC0-last (hr*ng/mL) ORA vs Citrate Mean ± StdDev,[1]; [5],91.18 +/− 72.46%
same,% Cmax (ng/mL) ORA vs Citrate Mean ± StdDev,[1]; [5],89.97 +/− 82.63%
same,% AUC0-last (hr*ng/mL) ORA vs Citrate Mean ± StdDev,[1]; [6],94.75 +/− 64.83%
same,% Cmax (ng/mL) ORA vs Citrate Mean ± StdDev,[1]; [6],99.04 +/− 80.01%
same,% AUC0-last (hr*ng/mL) ORA vs Citrate Mean ± StdDev,[1]; [7],75.93 +/− 63.12%
same,% Cmax (ng/mL) ORA vs Citrate Mean ± StdDev,[1]; [7],83.99 +/− 73.13%
same,Tmax,"[1]; Sprague Dawley, iv, 12 mg/kg, Group 9: 12 mg/kg IV, 5 mM Citric acid buffer + 15% Captisol",0.25 h
same,AUC(0-t),[1]; [8],2010 ± 176 ng·h/mL
same,Cmax,[1]; [8],685 ± 109 ng/mL
same,Tmax,[1]; [8],1.8 ± 0.45 h
same,AUC(0-t),[1]; [9],2680 ± 811 ng·h/mL
same,AUC(0-t),[1]; [10],2940 ± 1570 ng·h/mL
same,Cmax,[1]; [9],747 ± 238 ng/mL
same,Cmax,[1]; [10],831 ± 618 ng/mL
same,Tmax,[1]; [9],1.5 ± 1.41 h
same,Tmax,[1]; [10],2.4 ± 2.07 h
same,AUC(0-t),[1]; [11],5220 ± 2760 ng·h/mL
same,AUC(0-t),[1]; [12],5510 ± 2590 ng·h/mL
same,Cmax,[1]; [11],1240 ± 519 ng/mL
same,Cmax,[1]; [12],1400 ± 626 ng/mL
same,Tmax,[1]; [11],2.7 ± 1.79 h
same,Tmax,[1]; [12],1.4 ± 0.55 h
same,AUC(0-t),[1]; [13],3560 ± 906 ng·h/mL
same,AUC(0-t),[1]; [14],4750 ± 3070 ng·h/mL
same,Cmax,[1]; [13],909 ± 302 ng/mL
same,Cmax,[1]; [14],1080 ± 584 ng/mL
same,Tmax,[1]; [13],3 ± 2.74 h
same,Tmax,[1]; [14],4.4 ± 1.67 h
same,AUC(0-t),[1]; [15],3390 ± 402 ng·h/mL
same,Cmax,[1]; [15],2360 ± 92.7 ng/mL
same,AUC(0-t),[1]; [16],7500 ± 552 ng·h/mL
same,Cmax,[1]; [16],5110 ± 416 ng/mL
same,Tmax,[1]; [16],0.25 h
same,AUC(0-t),[1]; [17],975 ± 304 ng·h/mL
same,Cmax,[1]; [17],321 ± 111 ng/mL
same,Tmax,[1]; [17],0.9 ± 0.22 h
same,AUC % Extrap,[2]; [18],2.77 ± 0.30%
same,Cl_F,[2]; [18],249.8 ± 24.2 mL/min/kg
same,Vz_F,[2]; [18],50.18 ± 39.85 L/kg
same,AUC % Extrap,[2]; [19],6.22 ± 6.79 %
same,Cl_F,[2]; [19],177.2 ± 65.5 mL/min/kg
same,Vz_F,[2]; [19],38.84 ± 10.64 L/kg
same,AUC % Extrap,[2]; [20],6.89 ± 3.49 %
same,Cl_F,[2]; [20],369.7 ± 105 mL/min/kg
same,Vz_F,[2]; [20],88.96 ± 44.19 L/kg
same,AUC % Extrap,[2]; [21],1.71 ± 1.37%
same,Cl_F,[2]; [21],136 ± 105 mL/min/kg
same,Vz_F,[2]; [21],44.20 ± 37.62 L/kg
same,% AUC0-last test vs reference,[2]; Group 1 (24 mg/kg FB ORA-plus) vs Group 3 (24 mg/kg 2HCl ORA-plus),121.69%
same,% AUC0-last test vs reference,[2]; Group 1 (24 mg/kg FB ORA-plus) vs Group 4 (48 mg/kg 2HCl ORA-plus),24.79%
same,% AUC0-last test vs reference,[2]; Group 1 (24 mg/kg FB ORA-plus) vs Group 7 (24 mg/kg FB SyrSpend),123.40%
same,% AUC0-last test vs reference,[2]; Group 1 (24 mg/kg FB ORA-plus) vs Group 9 (24 mg/kg 2HCl SyrSpend),133.31%
same,% AUC0-last test vs reference,[2]; Group 2 (48 mg/kg FB ORA-plus) vs Group 4 (48 mg/kg 2HCl ORA-plus),70.46%
same,% AUC0-last test vs reference,[2]; Group 2 (48 mg/kg FB ORA-plus) vs Group 8 (48 mg/kg FB SyrSpend),54.72%
same,% AUC0-last test vs reference,[2]; Group 2 (48 mg/kg FB ORA-plus) vs Group 10 (48 mg/kg 2HCl SyrSpend),51.93%
same,% AUC0-last test vs reference,[2]; Group 7 (24 mg/kg FB SyrSpend) vs Group 9 (24 mg/kg 2HCl SyrSpend),108.03%
same,% AUC0-last test vs reference,[2]; Group 8 (48 mg/kg FB SyrSpend) vs Group 10 (48 mg/kg 2HCl SyrSpend),94.91%
same,AUC(0-inf),[2]; [22],1610 ± 156 ng·h/mL
same,AUC(0-t),[2]; [22],1570 ± 152 ng·h/mL
same,Cmax,[2]; [22],579 ± 108 ng/mL
same,Tmax,[2]; [22],1.4 ± 0.55 h
same,half-life,[2]; [22],2.36 ± 1.98 h
same,AUC(0-t),[2]; [23],4460 ± 2110 ng·h/mL
same,Cmax,[2]; [23],803 ± 278 ng/mL
same,Tmax,[2]; [23],2.8 ± 1.64 h
same,AUC(0-inf),[2]; [24],5060 ± 2070 ng·h/mL
same,half-life,[2]; [24],2.61 ± 0.44 h
same,AUC(0-t),[2]; [25],1270 ± 524 ng·h/mL
same,Cmax,[2]; [25],371 ± 196 ng/mL
same,Tmax,[2]; [25],1 h
same,AUC(0-inf),[2]; [26],1180 ± 451 ng·h/mL
same,half-life,[2]; [26],2.78 ± 1.13 h
same,AUC(0-inf),[2]; [27],8080 ± 4090 ng·h/mL
same,AUC(0-t),[2]; [27],8140 ± 3550 ng·h/mL
same,Cmax,[2]; [27],1030 ± 421 ng/mL
same,Tmax,[2]; [27],3.4 ± 1.95 h
same,half-life,[2]; [27],3.56 ± 1.03 h
same,Time point up to which all animals had quantifiable plasma levels,"[2]; single oral dose, free base or 2HCl, ORA-Plus or SyrSpend",≥ 8 h
same,MTD,"[3]; female, Sprague Dawley, rat, in vivo, iv, intravenously administered, rats, read-out: Maximum tolerated dose",24 mg/kg
same,Body weight and toxicity,"[3]; higher oral doses (above 24 mg/kg), data not shown",minimal effects on body weight and limited toxicity

# From patent publication US20200069592A1, “HSP90 INHIBITOR ORAL FORMULATIONS AND RELATED METHODS” (Samus Therapeutics, Inc., priority 2017, published 2020)
